Test results taken from PubChem BioAssay (NCI).
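Cultured in 96-well plates, cells were exposed to test compound for 48 hours across five concentrations. Abbreviation: GI50, concentration required for 50% inhibition of growth. TGI: concentration producing complete growth inhibition.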

Columns and labels:
Experiment in all cases: NCI tumour cell line growth inhibition, 48 h
HCC-2998 colon = test system: HCC-2998 colon
HOP-62 NSCLC = test system: HOP-62 NSCLC
IGROV1 ovarian = test system: IGROV1 ovarian
NCI-H23 lung = test system: NCI-H23 lung
OVCAR-4 ovarian = test system: OVCAR-4 ovarian
SF-268 CNS = test system: SF-268 CNS
SF-539 CNS = test system: SF-539 CNS
SN12C renal = test system: SN12C renal
RXF 393 renal = test system: RXF 393 renal
MCF7 breast = test system: MCF7 breast

| SMILES | TGI (HCC-2998 colon) | TGI (HOP-62 NSCLC) | TGI (IGROV1 ovarian) | TGI (NCI-H23 lung) | TGI (OVCAR-4 ovarian) | TGI (SF-268 CNS) | TGI (SF-539 CNS) | TGI (SN12C renal) | TGI (RXF 393 renal) | TGI (MCF7 breast) | GI50 (OVCAR-4 ovarian) | GI50 (HCC-2998 colon) | GI50 (HOP-62 NSCLC) | GI50 (IGROV1 ovarian) | GI50 (MCF7 breast) | GI50 (NCI-H23 lung) | GI50 (SF-268 CNS) | GI50 (SF-539 CNS) | GI50 (SN12C renal) |
| --- | --- | --- | --- | --- | --- | --- | --- | --- | --- | --- | --- | --- | --- | --- | --- | --- | --- | --- | --- |
| COc1cccc(N2C(=O)/C(=C/c3ccc(N(CCC#N)CCC#N)cc3)N=C2c2cc([N+](=O)[O-])ccc2Cl)c1 | > 100 µM | > 100 µM | > 100 µM | > 100 µM | > 100 µM | > 100 µM | > 100 µM | > 100 µM | – | – | – | – | – | – | – | – | – | – | – |
| CC12CC/C(=N/NC(N)=O)C3C1CCCC32 | > 100 µM | > 100 µM | > 100 µM | > 100 µM | > 100 µM | > 100 µM | > 100 µM | > 100 µM | – | – | – | – | – | – | – | – | – | – | – |
| Cc1ccc(C(=O)C(c2nc3n(c2O)C(=N)N=N3)c2nc3n(c2O)C(=N)N=N3)cc1 (stereo not given) | > 100 µM | – | > 100 µM | > 100 µM | > 100 µM | > 100 µM | > 100 µM | > 100 µM | > 100 µM | – | – | – | – | – | – | – | – | – | – |
| O=c1c2ccccc2nc2n1CCc1c-2[nH]c2cc3c(cc12)OCO3 | > 25 µM | > 25 µM | > 25 µM | – | 6.35 µM | > 25 µM | > 25 µM | > 25 µM | – | > 25 µM | 1.5 µM | – | – | – | – | – | – | – | – |
| COC(=O)C(=O)C(C#N)c1cccc(Cl)c1 (stereo not given) | > 100 µM | > 100 µM | > 100 µM | > 100 µM | > 100 µM | > 100 µM | > 100 µM | > 100 µM | > 100 µM | – | – | – | – | – | – | – | – | – | – |
| O=C[C@]12CC=C3OC4OC5(CCCCC5)OC4[C@H]3[C@H]1C(=O)C=CC2=O (stereo not given in full) | 90.8 µM | > 100 µM | – | – | 31.7 µM | 89 µM | 13.4 µM | > 100 µM | 25.9 µM | – | – | – | – | – | – | – | – | – | – |
| Cn1nc(-c2ccccc2)c2c(/C=C/c3ccc(Cl)cc3)onc2c1=O | – | – | > 100 µM | > 100 µM | – | > 100 µM | 72.8 µM | > 100 µM | > 100 µM | – | – | – | – | – | – | – | – | – | – |
| Cc1cc2nc3c(=O)[nH]c(=O)nc-3n(CC(O)C(O)C(O)CO)c2cc1N (stereo not given) | > 100 µM | – | > 100 µM | > 100 µM | > 100 µM | – | > 100 µM | > 100 µM | – | – | – | – | – | – | – | – | – | – | – |
| CC12CCCC(C#N)(C1)OC2=O (stereo not given) | – | > 100 µM | > 100 µM | > 100 µM | > 100 µM | > 100 µM | > 100 µM | > 100 µM | > 100 µM | – | – | – | – | – | – | – | – | – | – |
| CN(C)CCCOc1ccc(/C=C2/CCC/C(=C/c3ccc(OCCCN(C)C)cc3)C2=O)cc1 | 3.12 µM | 4.49 µM | 6.78 µM | 3.63 µM | 7.1 µM | 4.84 µM | 3.02 µM | 2.96 µM | 2.98 µM | – | – | – | – | – | – | – | – | – | – |
| CCC1=C[C@@H]2CN(C1)Cc1c([nH]c3ccccc13)[C@@](C(=O)OC)(c1cc3c(cc1OC)N(C)[C@H]1[C@@](O)(C(=O)OC)[C@H](OC(C)=O)[C@]4(CC)C=CCN5CC[C@]31[C@@H]54)C2 | 1.86 µM | 24.4 µM | 0.463 µM | 41.4 µM | 21 µM | 14.2 µM | 0.0441 µM | 43.7 µM | – | 11.5 µM | < 0.01 µM | < 0.011 µM | < 0.0148 µM | < 0.0136 µM | < 0.01 µM | < 0.0187 µM | < 0.01 µM | < 0.01 µM | < 0.0214 µM |
| O=C1C(Cl)=C(Cl)C(=O)N1c1ccccc1Cl | > 100 µM | > 100 µM | > 100 µM | > 100 µM | > 100 µM | > 100 µM | > 100 µM | > 100 µM | > 100 µM | – | – | – | – | – | – | – | – | – | – |
